Reference: patent publication US11878986B2, “Poly heterocyclic conjugates and their pharmaceutical uses” (National Health Research Institutes, priority 2020, dated 2024)

System: human pancreatic cancer cells (MIA PaCa-2)
Assay: Tumor growth inhibition in subcutaneous xenograft model, MIA PaCa-2
Format: in vivo, mouse
Details: s.c. xenograft in athymic nude mice; i.v. 1-5 mg/kg, once/week or twice/week for 1-3 weeks; vs vehicle control, p<0.05; FIG. 1
Description: The efficacy of compounds 2 and 11 in inhibiting the growth of human pancreatic cancer cells (MIA PaCa-2) and the efficacy of compounds 1-4, 23, 25, and 26 in inhibiting the growth of human triple-negative breast cancer cells (HCC1806) were assessed as follows.
Male and female athymic NU-Fox1^nu nude mice (BioLASCO, Taiwan) at age 4-5 weeks were housed in sterilized cages equipped with an air filter and sterile bedding materials at the Laboratory Animal Center of the National Health Research Institutes (NHRI), which is an AAALAC International accredited facility. All the mice were fed with sterilized water and chow ad libitum under 12-hr light/12-hr dark cycle throughout the study. […]
The MIA PaCa-2 and HCC1806 cells were suspended in phenol-red-free culture medium/Matrigel™ (1/1) and implanted subcutaneously (s.c.) into the left flank of the nude mice (1×10^6 cells/flank) via a 1 mL syringe. Tumor dimensions were measured twice a week using a digital caliper and the tumor volume (mm^3) was calculated based on the formula, i.e., volume=(length×width^2)/2.
Tumor-bearing mice were randomized (n=7-8 per group) when the average tumor volume reached approximately 200 mm^3. […] Tumor size and body weight of each animal were measured twice a week. Data was expressed as the mean or mean±standard error of the mean (SEM). […]

| Compound | inhibition of the growth of MIA PaCa-2 (tumor volume) |
| --- | --- |
| CCCCCC(=O)Nc1cccc(CN(Cc2cc(CN(Cc3ccccn3)Cc3cccc(NC(=O)CCCCC)n3)cc(OCCCCN(Cc3ccc(-c4ccccc4)cc3)C(=O)COCCOCCOCC(=O)NCc3ccc(CNC(=O)CCSSCCC(=O)N(C)[C@H](C)C(=O)O[C@@H]4CC(=O)N(C)c5cc(cc(OC)c5Cl)C/C(C)=C/C=C/[C@H](OC)[C@]5(O)C[C@@H](OC(=O)N5)[C@H](C)[C@H]5O[C@]54C)cc3)c2)Cc2ccccn2)n1 [Compound 2] | significantly inhibited the growth |
| CCCCCC(=O)Nc1cccc(CN(Cc2cc(CN(Cc3ccccn3)Cc3cccc(NC(=O)CCCCC)n3)cc(OCCCCNC(=O)COCCOCCOCC(=O)NCc3ccc(CNC(=O)CCSSCCC(=O)N(C)[C@H](C)C(=O)O[C@@H]4CC(=O)N(C)c5cc(cc(OC)c5Cl)C/C(C)=C/C=C/[C@H](OC)[C@]5(O)C[C@H](OC(=O)N5)[C@H](C)C5O[C@@]54C)cc3)c2)Cc2ccccn2)n1 (some centres unmarked) [Compound 11] | significantly inhibited the growth |
